Drawing on ChEMBL document CHEMBL3102798, “Stapled Vasoactive Intestinal Peptide (VIP) Derivatives Improve VPAC2 Agonism and Glucose-Dependent Insulin Secretion” (ACS Med Chem Lett, 2013), this text covers EC50 for 6 compounds.

Numbered stars: 1 amine (or outer) side, 2 acyl side, 3 side chain; on linkers, the order of the positions; unused ones are H or OH. Bridge positions count the residues as written; N and C are the ends. Square brackets hold non-standard residues; d marks the D form. Peptide text beside a SMILES is read from it. X1 = C[C@@](CCCCC=[*:3])(N[*:1])C(=O)[*:2]; S5 = C=CCCC[C@](C)(N)C(=O)O

In the assay the target is T1, Vasoactive intestinal polypeptide receptor 2 (Homo sapiens, UniProt P41587).
T1 sequence (P41587 whole entry): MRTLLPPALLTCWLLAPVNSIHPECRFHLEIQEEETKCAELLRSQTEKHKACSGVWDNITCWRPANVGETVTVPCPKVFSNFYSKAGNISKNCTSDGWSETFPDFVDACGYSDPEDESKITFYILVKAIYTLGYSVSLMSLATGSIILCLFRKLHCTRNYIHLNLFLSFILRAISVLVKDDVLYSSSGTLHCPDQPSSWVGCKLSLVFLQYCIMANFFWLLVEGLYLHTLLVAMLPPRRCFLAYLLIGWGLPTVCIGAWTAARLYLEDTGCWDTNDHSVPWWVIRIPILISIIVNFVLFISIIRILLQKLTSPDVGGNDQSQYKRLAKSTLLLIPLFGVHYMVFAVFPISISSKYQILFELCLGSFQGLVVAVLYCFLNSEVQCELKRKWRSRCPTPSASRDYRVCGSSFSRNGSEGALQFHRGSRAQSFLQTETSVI
Briefly: Agonist activity at human VPAC2 expressed in CHO Flp-in cells assessed as accumulation of cAMP after 30 mins by TR-FRET assay. The format is functional, cell-based.
Broadly, the EC50 is the midpoint of the concentration-response curve. Consider `C=CCCC[C@](C)(NC(=O)[C@H](CCCCN)NC(=O)[C@@H](NC(=O)[C@H](C)NC(=O)[C@@H](NC(=O)[C@H](CCC(N)=O)NC(=O)[C@H](CCCCN)NC(=O)[C@H](CCCN=C(N)N)NC(=O)[C@H](CC(C)C)NC(=O)[C@H](CCCN=C(N)N)NC(=O)[C@@H](NC(=O)[C@H](Cc1ccc(O)cc1)NC(=O)[C@H](CC(N)=O)NC(=O)[C@H](CC(=O)O)NC(=O)[C@@H](NC(=O)[C@H](Cc1ccccc1)NC(=O)[C@@H](NC(=O)[C@H](C)NC(=O)[C@H](CC(=O)O)NC(=O)[C@H](CO)NC(=O)[C@@H](N)Cc1cnc[nH]1)C(C)C)[C@@H](C)O)[C@@H](C)O)[C@@H](C)CC)C(C)C)C(=O)N[C@@H](Cc1ccc(O)cc1)C(=O)N[C@@H](CC(C)C)C(=O)N[C@@H](CC(N)=O)C(=O)N[C@@](C)(CCCC=C)C(=O)N[C@H](C(=O)N[C@@H](CC(C)C)C(=O)N[C@@H](CC(N)=O)C(=O)NCC(=O)N[C@@H](CCCCN)C(=O)O)[C@@H](C)CC` (H-HSDAVFTDNYTRLRKQIAVK[S5]YLN[S5]ILNGK-OH), for which the EC50 turned out to be 3.8 nM.

Turning to `CC[C@H](C)[C@H](NC(=O)[C@H](CCC(N)=O)NC(=O)[C@H](CCCCN)NC(=O)[C@H](CCCNC(=N)N)NC(=O)[C@H](CC(C)C)NC(=O)[C@H](CCCNC(=N)N)NC(=O)[C@@H](NC(=O)[C@H](Cc1ccc(O)cc1)NC(=O)[C@H](CC(N)=O)NC(=O)[C@H](CC(=O)O)NC(=O)[C@@H](NC(=O)[C@H](Cc1ccccc1)NC(=O)[C@@H](NC(=O)[C@H](C)NC(=O)[C@H](CC(=O)O)NC(=O)[C@H](CO)NC(=O)[C@@H](N)Cc1cnc[nH]1)C(C)C)[C@@H](C)O)[C@@H](C)O)C(=O)N[C@@H](C)C(=O)N[C@H](C(=O)N[C@@H](CCCCN)C(=O)N[C@@]1(C)CCCC/C=C\CCCC[C@@](C)(C(=O)N[C@H](C(=O)N[C@@H](CC(C)C)C(=O)N[C@@H](CC(N)=O)C(=O)NCC(=O)N[C@@H](CCCCN)C(=O)O)[C@@H](C)CC)NC(=O)[C@H](CC(N)=O)NC(=O)[C@H](CC(C)C)NC(=O)[C@H](Cc2ccc(O)cc2)NC1=O)C(C)C` (H-HSDAVFTDNYTRLRKQIAVK[X1]YLN[X1]ILNGK-OH; staple (Z) 21-25), the concentration giving a half-maximal response (EC50) is 1.52 nM.

Regarding `C=CCCC[C@](C)(NC(=O)[C@H](CCC(N)=O)NC(=O)[C@H](CCCCN)NC(=O)[C@H](CCCN=C(N)N)NC(=O)[C@H](CC(C)C)NC(=O)[C@H](CCCN=C(N)N)NC(=O)[C@@H](NC(=O)[C@H](Cc1ccc(O)cc1)NC(=O)[C@H](CC(N)=O)NC(=O)[C@H](CC(=O)O)NC(=O)[C@@H](NC(=O)[C@H](Cc1ccccc1)NC(=O)[C@@H](NC(=O)[C@H](C)NC(=O)[C@H](CC(=O)O)NC(=O)[C@H](CO)NC(=O)[C@@H](N)Cc1cnc[nH]1)C(C)C)[C@@H](C)O)[C@@H](C)O)C(=O)N[C@@H](C)C(=O)N[C@H](C(=O)N[C@@H](CCCCN)C(=O)N[C@@](C)(CCCC=C)C(=O)N[C@@H](Cc1ccc(O)cc1)C(=O)N[C@@H](CC(C)C)C(=O)N[C@@H](CC(N)=O)C(=O)N[C@@H](CO)C(=O)N[C@H](C(=O)N[C@@H](CC(C)C)C(=O)N[C@@H](CC(N)=O)C(=O)NCC(=O)N[C@@H](CCCCN)C(=O)O)[C@@H](C)CC)C(C)C` (H-HSDAVFTDNYTRLRKQ[S5]AVK[S5]YLNSILNGK-OH), the EC50 is 1.49 nM.

As to `CC[C@H](C)[C@H](NC(=O)[C@H](CO)NC(=O)[C@H](CC(N)=O)NC(=O)[C@H](CC(C)C)NC(=O)[C@H](Cc1ccc(O)cc1)NC(=O)[C@]1(C)CCCC/C=C\CCCC[C@](C)(NC(=O)[C@H](CCC(N)=O)NC(=O)[C@H](CCCCN)NC(=O)[C@H](CCCNC(=N)N)NC(=O)[C@H](CC(C)C)NC(=O)[C@H](CCCNC(=N)N)NC(=O)[C@@H](NC(=O)[C@H](Cc2ccc(O)cc2)NC(=O)[C@H](CC(N)=O)NC(=O)[C@H](CC(=O)O)NC(=O)[C@@H](NC(=O)[C@H](Cc2ccccc2)NC(=O)[C@@H](NC(=O)[C@H](C)NC(=O)[C@H](CC(=O)O)NC(=O)[C@H](CO)NC(=O)[C@@H](N)Cc2cnc[nH]2)C(C)C)[C@@H](C)O)[C@@H](C)O)C(=O)N[C@@H](C)C(=O)N[C@@H](C(C)C)C(=O)N[C@@H](CCCCN)C(=O)N1)C(=O)N[C@@H](CC(C)C)C(=O)N[C@@H](CC(N)=O)C(=O)NCC(=O)N[C@@H](CCCCN)C(=O)O` (H-HSDAVFTDNYTRLRKQ[X1]AVK[X1]YLNSILNGK-OH; staple (Z) 17-21), the concentration for a half-maximal effect (EC50) was determined as 0.33 nM.

In the case of H-HSDAVFTDNYTRERKQKAVKKYLNSILNGK-OH, the EC50 was determined as 6.6 nM.

In the case of H-HSDAVFTDNYTRLRKQIAVKEYLNKILNGK-OH, the EC50 turned out to be 0.21 nM.
